The source made the active and inactive calls. No cut-off for these calls is given here.

In experiment [1] the test system is SK-OV-3. The experiment can be described thus: Cytotoxicity against human SKOV3 cells assessed as inhibition of KSP-mediated cell cycle progression after 44 hrs by MTT assay. The conditions noted are these: SK-OV-3, 44 h. It counts as functional. Background: Tetrazolium assays rely on reduction of a dye to a coloured formazan, in cell work by metabolically active cells.

The test system of experiment [2] is SK-OV-3. Nature of the experiment: Nonspecific cytotoxicity against human SKOV3 cells after 44 hrs by MTT assay. It counts as functional. To be noted: SK-OV-3, 44 h.
Experiment [3] has as its system MCF7. Nature of the experiment: Cytotoxicity against human MCF7 cells assessed as inhibition of KSP-mediated cell cycle progression after 44 hrs by MTT assay. It counts as functional. The conditions noted are these: MCF7, 44 h.
The test system of experiment [4] is MCF7. The experiment can be described thus: Nonspecific cytotoxicity against human MCF7 cells after 44 hrs by MTT assay. It counts as functional. To be noted: MCF7, 44 h.
The test system of experiment [5] is PC-3. The experiment can be described thus: Cytotoxicity against human PC3 cells assessed as inhibition of KSP-mediated cell cycle progression after 44 hrs by MTT assay. It counts as functional. The conditions noted are these: PC-3, 44 h.
Experiment [6] relates to PC-3. The experiment can be described thus: Nonspecific cytotoxicity against human PC3 cells after 44 hrs by MTT assay. It counts as functional. The conditions noted are these: PC-3, 44 h.
Experiment [7] has as its system DU-145. The experiment can be described thus: Cytotoxicity against human DU145 cells assessed as inhibition of KSP-mediated cell cycle progression after 44 hrs by MTT assay. It counts as functional. The conditions noted are these: DU-145, 44 h.
For experiment [8], the system named is DU-145. Nature of the experiment: Nonspecific cytotoxicity against human DU145 cells after 44 hrs by MTT assay. The conditions noted are these: DU-145, 44 h. It counts as functional.
The target in experiment [9] is T1, Kinesin-1 heavy chain (Homo sapiens) (UniProt P33176).
T1 sequence (whole entry): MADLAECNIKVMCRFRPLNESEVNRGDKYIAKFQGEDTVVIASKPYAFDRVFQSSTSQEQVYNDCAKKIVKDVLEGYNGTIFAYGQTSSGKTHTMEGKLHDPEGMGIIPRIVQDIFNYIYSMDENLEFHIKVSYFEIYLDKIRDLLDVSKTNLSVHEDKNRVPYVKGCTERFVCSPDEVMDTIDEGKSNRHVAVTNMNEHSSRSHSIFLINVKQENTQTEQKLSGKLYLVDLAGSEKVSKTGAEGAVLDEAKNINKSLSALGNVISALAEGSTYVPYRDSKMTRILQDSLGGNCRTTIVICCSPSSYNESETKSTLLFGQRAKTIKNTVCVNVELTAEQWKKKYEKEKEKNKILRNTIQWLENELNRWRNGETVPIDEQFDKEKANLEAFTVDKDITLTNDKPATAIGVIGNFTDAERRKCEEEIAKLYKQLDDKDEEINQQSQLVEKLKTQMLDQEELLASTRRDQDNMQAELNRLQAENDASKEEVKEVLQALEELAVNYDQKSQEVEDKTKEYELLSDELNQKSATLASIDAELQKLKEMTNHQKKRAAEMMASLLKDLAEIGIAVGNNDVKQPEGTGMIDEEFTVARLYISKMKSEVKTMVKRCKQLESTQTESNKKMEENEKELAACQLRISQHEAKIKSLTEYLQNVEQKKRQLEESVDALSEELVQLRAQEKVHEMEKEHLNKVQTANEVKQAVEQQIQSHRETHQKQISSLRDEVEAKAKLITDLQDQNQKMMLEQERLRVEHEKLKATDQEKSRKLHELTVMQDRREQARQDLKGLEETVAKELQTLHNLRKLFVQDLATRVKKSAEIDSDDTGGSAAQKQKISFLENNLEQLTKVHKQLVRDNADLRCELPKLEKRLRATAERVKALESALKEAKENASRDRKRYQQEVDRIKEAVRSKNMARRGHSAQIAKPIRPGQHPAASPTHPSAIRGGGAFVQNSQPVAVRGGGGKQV
The experiment can be described thus: Inhibition of KNH (unknown origin)-mediated ATP hydrolysis assessed as residual activity at 10 uM after 10 to 20 mins by spectrophotometric analysis.

Experiment [10] concerns the target T2, Kinesin-like protein KIFC3 (Homo sapiens) (UniProt Q9BVG8).
T2 sequence (whole entry): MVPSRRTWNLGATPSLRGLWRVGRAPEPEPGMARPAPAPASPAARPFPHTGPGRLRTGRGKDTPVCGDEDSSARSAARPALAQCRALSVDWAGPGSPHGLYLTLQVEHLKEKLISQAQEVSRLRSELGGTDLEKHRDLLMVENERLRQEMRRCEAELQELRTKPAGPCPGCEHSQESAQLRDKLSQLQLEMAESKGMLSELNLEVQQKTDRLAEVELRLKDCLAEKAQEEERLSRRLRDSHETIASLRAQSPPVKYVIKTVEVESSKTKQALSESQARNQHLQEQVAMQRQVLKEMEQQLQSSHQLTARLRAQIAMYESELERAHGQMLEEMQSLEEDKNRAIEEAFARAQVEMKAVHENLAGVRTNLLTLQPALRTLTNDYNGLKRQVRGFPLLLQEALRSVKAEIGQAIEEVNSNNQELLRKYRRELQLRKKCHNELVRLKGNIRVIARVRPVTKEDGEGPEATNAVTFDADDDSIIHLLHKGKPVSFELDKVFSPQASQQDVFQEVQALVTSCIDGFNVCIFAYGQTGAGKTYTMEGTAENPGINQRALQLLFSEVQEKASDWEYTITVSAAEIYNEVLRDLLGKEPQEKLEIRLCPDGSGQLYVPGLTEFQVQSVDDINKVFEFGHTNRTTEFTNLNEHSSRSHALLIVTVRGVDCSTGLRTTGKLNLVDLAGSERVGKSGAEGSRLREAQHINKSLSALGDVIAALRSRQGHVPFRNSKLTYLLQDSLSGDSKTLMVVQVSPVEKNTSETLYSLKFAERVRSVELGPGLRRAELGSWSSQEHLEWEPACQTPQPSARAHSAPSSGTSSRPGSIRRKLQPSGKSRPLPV
The experiment can be described thus: Inhibition of KIFC3 (unknown origin)-mediated ATP hydrolysis assessed as residual activity at 10 uM after 10 to 20 mins by spectrophotometric analysis.

Experiment [11] addresses T3, Kinesin-like protein KIF2C (Homo sapiens) (UniProt Q99661).
T3 sequence (whole entry): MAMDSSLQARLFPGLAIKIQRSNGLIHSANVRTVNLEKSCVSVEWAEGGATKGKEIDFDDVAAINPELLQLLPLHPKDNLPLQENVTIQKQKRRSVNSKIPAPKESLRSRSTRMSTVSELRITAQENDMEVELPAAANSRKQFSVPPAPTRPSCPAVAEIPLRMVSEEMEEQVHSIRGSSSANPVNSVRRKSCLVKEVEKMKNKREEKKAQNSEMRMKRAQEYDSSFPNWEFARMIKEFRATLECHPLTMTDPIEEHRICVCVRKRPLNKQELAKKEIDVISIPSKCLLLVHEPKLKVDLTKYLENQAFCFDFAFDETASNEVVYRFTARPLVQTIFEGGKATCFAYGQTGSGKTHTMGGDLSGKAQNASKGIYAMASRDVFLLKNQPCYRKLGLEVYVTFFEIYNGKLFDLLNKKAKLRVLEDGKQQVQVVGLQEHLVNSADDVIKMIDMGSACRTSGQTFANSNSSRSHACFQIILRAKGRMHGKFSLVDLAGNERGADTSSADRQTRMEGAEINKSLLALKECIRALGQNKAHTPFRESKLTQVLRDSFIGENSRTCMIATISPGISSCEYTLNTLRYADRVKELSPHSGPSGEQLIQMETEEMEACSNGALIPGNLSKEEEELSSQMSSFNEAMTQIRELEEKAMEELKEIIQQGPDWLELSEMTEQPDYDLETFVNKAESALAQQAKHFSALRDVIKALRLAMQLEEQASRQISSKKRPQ
The experiment can be described thus: Inhibition of MCAK (unknown origin)-mediated ATP hydrolysis assessed as residual activity at 10 uM after 10 to 20 mins by spectrophotometric analysis.

Experiment [12] deals with Centromere-associated protein E (Homo sapiens) (UniProt Q02224). The experiment can be described thus: Inhibition of CENP-E (unknown origin)-mediated ATP hydrolysis assessed as residual activity at 10 uM after 10 to 20 mins by spectrophotometric analysis.
Chain of Centromere-associated protein E (Homo sapiens) (Q02224 whole entry): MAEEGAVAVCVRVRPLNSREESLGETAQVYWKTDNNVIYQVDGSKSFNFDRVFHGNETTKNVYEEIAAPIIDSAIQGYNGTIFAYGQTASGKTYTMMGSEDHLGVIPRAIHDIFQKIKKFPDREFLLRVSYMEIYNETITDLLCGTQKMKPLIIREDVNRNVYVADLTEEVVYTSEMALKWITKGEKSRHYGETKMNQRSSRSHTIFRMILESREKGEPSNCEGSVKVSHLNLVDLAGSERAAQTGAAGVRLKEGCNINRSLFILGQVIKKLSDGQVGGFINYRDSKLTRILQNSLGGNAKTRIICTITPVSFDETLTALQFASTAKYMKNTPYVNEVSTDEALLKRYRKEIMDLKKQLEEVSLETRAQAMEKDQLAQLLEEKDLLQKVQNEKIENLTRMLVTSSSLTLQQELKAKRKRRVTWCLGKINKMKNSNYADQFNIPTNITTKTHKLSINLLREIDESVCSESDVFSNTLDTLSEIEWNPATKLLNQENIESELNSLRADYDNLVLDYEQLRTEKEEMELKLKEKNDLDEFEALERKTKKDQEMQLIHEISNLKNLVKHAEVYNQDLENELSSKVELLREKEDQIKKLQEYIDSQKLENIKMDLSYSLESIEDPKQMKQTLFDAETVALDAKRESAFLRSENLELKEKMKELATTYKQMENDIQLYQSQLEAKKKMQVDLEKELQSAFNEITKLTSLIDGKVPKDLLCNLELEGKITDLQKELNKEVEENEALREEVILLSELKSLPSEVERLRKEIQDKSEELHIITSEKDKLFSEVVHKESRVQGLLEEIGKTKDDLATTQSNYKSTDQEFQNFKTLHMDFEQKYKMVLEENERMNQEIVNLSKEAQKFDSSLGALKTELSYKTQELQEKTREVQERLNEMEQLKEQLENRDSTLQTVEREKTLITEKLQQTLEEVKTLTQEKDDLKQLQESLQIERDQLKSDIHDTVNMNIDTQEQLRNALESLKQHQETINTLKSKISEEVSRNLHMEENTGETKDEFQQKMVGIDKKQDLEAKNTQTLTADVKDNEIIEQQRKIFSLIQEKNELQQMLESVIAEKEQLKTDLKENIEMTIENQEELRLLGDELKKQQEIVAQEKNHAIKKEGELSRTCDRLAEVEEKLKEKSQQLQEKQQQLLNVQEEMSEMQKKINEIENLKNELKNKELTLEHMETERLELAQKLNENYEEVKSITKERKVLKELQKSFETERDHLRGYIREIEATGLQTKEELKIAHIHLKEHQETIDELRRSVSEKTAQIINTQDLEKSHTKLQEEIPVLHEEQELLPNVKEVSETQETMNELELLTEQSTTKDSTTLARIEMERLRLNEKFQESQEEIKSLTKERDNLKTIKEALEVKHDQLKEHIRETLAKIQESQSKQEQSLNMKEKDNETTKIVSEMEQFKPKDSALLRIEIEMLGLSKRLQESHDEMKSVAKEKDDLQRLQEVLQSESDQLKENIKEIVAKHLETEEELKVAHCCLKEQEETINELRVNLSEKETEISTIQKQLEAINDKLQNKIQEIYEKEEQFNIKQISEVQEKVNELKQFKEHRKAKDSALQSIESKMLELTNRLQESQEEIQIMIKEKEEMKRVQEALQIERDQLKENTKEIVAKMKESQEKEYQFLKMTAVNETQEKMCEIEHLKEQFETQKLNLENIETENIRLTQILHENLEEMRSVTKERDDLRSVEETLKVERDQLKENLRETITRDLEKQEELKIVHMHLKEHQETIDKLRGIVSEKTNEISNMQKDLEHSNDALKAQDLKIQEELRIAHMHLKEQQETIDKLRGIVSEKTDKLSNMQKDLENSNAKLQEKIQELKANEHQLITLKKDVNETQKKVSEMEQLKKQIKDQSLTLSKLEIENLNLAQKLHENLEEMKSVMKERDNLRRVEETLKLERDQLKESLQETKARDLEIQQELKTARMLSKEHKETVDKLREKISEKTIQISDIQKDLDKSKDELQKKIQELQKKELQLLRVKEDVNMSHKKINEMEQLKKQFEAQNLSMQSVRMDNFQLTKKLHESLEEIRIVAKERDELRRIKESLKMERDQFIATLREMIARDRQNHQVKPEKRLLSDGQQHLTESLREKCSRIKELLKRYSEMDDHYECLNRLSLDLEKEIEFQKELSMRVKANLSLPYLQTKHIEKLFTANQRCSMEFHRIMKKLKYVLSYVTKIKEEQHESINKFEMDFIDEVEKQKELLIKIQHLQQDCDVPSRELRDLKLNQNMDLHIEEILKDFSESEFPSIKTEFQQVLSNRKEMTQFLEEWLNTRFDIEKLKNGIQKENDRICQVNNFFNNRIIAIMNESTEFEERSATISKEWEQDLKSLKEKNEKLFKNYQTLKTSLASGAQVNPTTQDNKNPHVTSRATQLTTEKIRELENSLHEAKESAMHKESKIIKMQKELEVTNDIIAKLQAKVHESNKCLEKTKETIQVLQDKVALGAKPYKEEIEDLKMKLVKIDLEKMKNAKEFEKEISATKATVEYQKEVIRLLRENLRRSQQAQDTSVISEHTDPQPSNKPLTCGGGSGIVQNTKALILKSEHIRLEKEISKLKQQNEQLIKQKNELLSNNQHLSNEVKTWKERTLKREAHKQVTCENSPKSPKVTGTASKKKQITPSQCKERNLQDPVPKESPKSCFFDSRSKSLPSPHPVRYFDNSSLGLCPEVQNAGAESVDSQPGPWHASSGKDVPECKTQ
Experiment [13] deals with SK-OV-3. The experiment can be described thus: Cell cycle arrest in human SKOV3 cells assessed as monoaster phenotype at 100 nM after 22 hrs by confocal microscopic analysis. It counts as functional, cell-based.

As to `CC(C)C(c1nc2cc(Cl)ccc2c(=O)n1Cc1ccccc1)N(CCCN)C(=O)c1ccccc1F` (racemic), the GI50 in experiment [1] was determined as 35.6 nM; in [2], 3100 nM; in experiment [3], 17.7 nM; in [4], 1900 nM; in experiment [5], 1.9 nM; in experiment [6] it was 350 nM. For the same molecule, the GI50 in experiment [7] was 48.5 nM.

Turning to `CC(C)C(c1nc2cc(Cl)ccc2c(=O)n1Cc1ccccc1)N(CCCN)C(=O)c1ccc(F)cc1` (racemic), the GI50 was 2700 nM in experiment [1]; 4300 nM in [2]; 4000 nM in [3]; 2700 nM in experiment [4]; 1100 nM in [5]; 6300 nM in experiment [6]. For the same molecule, the GI50 in experiment [7] worked out at 1100 nM; in [8], 3100 nM.

Take `CCOC(=O)C1=C(C)NC(=S)N[C@@H]1c1cccc(O)c1`: the Activity in experiment [9] is 98.5%; in experiment [10] it was 98.3%; in experiment [11], 97%; in experiment [12] it was 97.7%.

As for `CC(C)[C@H](c1nc2cc(Cl)ccc2c(=O)n1Cc1ccccc1)N(CCCN)C(=O)c1cccc(F)c1`, the outcome in experiment [13] was Active.

Broadly, the GI50 is the concentration giving 50% growth inhibition.

(Values after ChEMBL document CHEMBL2321780, “Fluorinated quinazolinones as potential radiotracers for imaging kinesin spindle protein expression” (2013).)
